Here are results for 87 molecules from a melting point compilation (Tetko et al.).

Each structure is given as a SMILES string.

On to `NC(=O)NCCc1cccnc1`, for which the melting point (commonly the temperature of the solid-liquid transition) was in the range of 152 to 154 °C.

Molecule `CC(Cl)C(=O)NC(=O)NC1CC1` (configuration not stated) yielded a melting point of 88 to 90 °C.

In the case of `N#Cc1ccc(-c2nc3ccccc3[nH]2)cc1`, the melting point fell in the range of 326 to 328 °C.

Take `Cc1cc(O)n(C(C)(C)C)n1`: the melting point fell in the range of 125 to 127 °C.

Consider `O=C(O)C1CCN(c2ccc(F)c(F)c2)C1=O` (configuration not stated), for which the melting point lay in the range of 154 to 156 °C.

Turning to `O=C(O)CN1C(=O)COc2cc(Br)ccc21`, the melting point was 234 to 236 °C.

For the molecule `OC1CNCC1N1CCCC1` (configuration not stated), the melting point is 82 to 84 °C.

`COc1ccc(Cl)cc1NC(=O)CCl` displayed a melting point of 101 to 103 °C.

For the molecule `Nc1ccc(Oc2ccc(C(F)(F)F)cn2)c(F)c1`, the melting point was in the range of 90 to 92 °C.

In turn, `Cc1ccc(-c2nnc(S)o2)cc1C` returned a melting point of 195 to 197 °C.

As to `O=C(O)CSc1nncn1-c1ccccc1`, the melting point was 207 to 209 °C.

`CC12CCCC(C(=O)O)(CCC1)C2` gave a melting point of 144 to 146 °C.

As for `O=S(=O)(Cl)c1ccc(S(=O)(=O)C(F)F)cc1`, the melting point was 139 to 141 °C.

In turn, `O=C(Nc1ccc2c(c1)OCO2)C(Cl)(Cl)Cl` showed a melting point of 99 to 101 °C.

The molecule `O=C(Nc1cccc(Br)n1)c1ccccc1` displayed a melting point of 84 to 86 °C.

For `CC(=O)Nc1ccc(S(=O)(=O)N2CCC(=NO)CC2)cc1`, the melting point was 200 to 202 °C.

Molecule `COCCOc1ccc2[nH]ccc2c1` yielded a melting point of 61 to 63 °C.

`CNCc1cn(C)c(=O)n(C)c1=O` came in with a melting point of 128 to 130 °C.

As for `Cc1ccc(-c2n[nH]cc2Br)cc1C`, the melting point was 116 to 118 °C.

In turn, `NC(=O)c1cccc([N+](=O)[O-])c1O` yielded a melting point of 154 to 156 °C.

Consider `Cc1[nH]c(-c2ccnc(Cl)c2)nc(=O)c1C`, for which the melting point fell in the range of 253 to 255 °C.

The molecule `OCCNc1ncnc2ccccc12` returned a melting point of 172 to 174 °C.

Consider `Nc1nc(Cc2ccccc2)c(-c2ccccc2)s1`, for which the melting point lay within 139 to 141 °C.

As to `O=C(CCc1ccccc1)c1ccccc1`, the melting point was in the range of 69 to 71 °C.

`CC1CCC(NC(=O)CN2CCNCC2)CC1` (configuration not stated) displayed a melting point of 120 to 122 °C.

Turning to `COc1cc(CC#N)ccc1[N+](=O)[O-]`, the melting point lay in the range of 84 to 86 °C.

`O=C(O)c1c[nH]nc1-c1ccncc1`: the melting point was in the range of 334 to 336 °C.

`N#Cc1ccc(N2CCOC2=O)nc1`: the melting point is 186 to 188 °C.

The molecule `O=Cc1ccc(OCC(=O)c2ccccc2)cc1` came in with a melting point of 115 to 119 °C.

Molecule `Nn1c(S)nnc1-c1cccnc1` registered a melting point of 190 to 192 °C.

In turn, `Cc1cc(C(=O)O)c2[nH]ncc2c1` came in with a melting point of 286 to 288 °C.

For `CCn1nc(C(=O)O)c(=O)c2ccccc21`, the melting point was 210 to 212 °C.

Consider `Clc1cc(-c2cccnc2)nc2ncnn12`, for which the melting point was 175 to 177 °C.

Consider `CCOc1ccccc1-c1csc(N)n1`, for which the melting point was in the range of 209 to 211 °C.

As to `O=C(O)Cn1cnc2ccccc2c1=O`, the melting point is 241 to 243 °C.

Molecule `CC(C)(C)OC(=O)NC(C(=O)O)C1CCCCC1` (configuration not stated) yielded a melting point of 163 to 165 °C.

For the molecule `CON(C)S(=O)(=O)c1ccc(N)cc1`, the melting point was 148 to 150 °C.

`Cc1noc(C)c1C(C)C(=O)O` (configuration not stated) returned a melting point of 101 to 103 °C.

Regarding `Nc1nonc1I`, the melting point was 90 to 92 °C.

Molecule `NCCc1cccc(OCCCc2ccccc2)c1` displayed a melting point of 44 to 46 °C.

For `CN(C)c1ccc(N)cc1Cl`, the melting point lay within 72 to 73 °C.

On to `COc1cccc(C(N)=O)c1O`, for which the melting point lay in the range of 155 to 157 °C.

Regarding `COC(=O)c1cccc(-c2nn[nH]n2)c1`, the melting point was 189 to 191 °C.

In turn, `CC(C)C(=O)N(C)CC(=O)O` came in with a melting point of 109 to 111 °C.

Consider `O=C(Nc1ccc(Cl)cn1)C1CCCNC1` (configuration not stated), for which the melting point was in the range of 156 to 158 °C.

The molecule `COC(=O)CNc1ccncc1[N+](=O)[O-]` gave a melting point of 104 to 106 °C.

In turn, `COC(=O)c1ccc(CBr)s1` yielded a melting point of 36 to 38 °C.

As for `CC(C)C(=O)N1CCCC(C(=O)O)C1` (configuration not stated), the melting point lay within 131 to 133 °C.

As to `O=C1C(Br)=CC2C1C1C=CC2(Br)C12OCCO2` (configuration not stated), the melting point lay within 171 to 173 °C.

Take `O=C(O)c1nn(-c2ccccc2)cc1OC(F)F`: the melting point was in the range of 134 to 136 °C.

`CC(C)(C)C(=O)Nc1cccc(C(=O)O)c1`: the melting point lay within 211 to 213 °C.

Turning to `Nc1ccc(F)c(NC(=O)CCN2CCOCC2)c1`, the melting point lay in the range of 119 to 121 °C.

As for `O=C(CCCl)Nc1ccc(N2CCOCC2)cc1`, the melting point is 192 to 194 °C.

In the case of `O=C(O)CNS(=O)(=O)c1ccc(F)c(F)c1F`, the melting point is 175 to 177 °C.

In turn, `CC1CNCC(C)N1C(=O)OC(C)(C)C` (configuration not stated) yielded a melting point of 61 to 63 °C.

`O=S1(=O)CCC(c2nnc(S)o2)C1` (configuration not stated) returned a melting point of 181 to 183 °C.

The molecule `O=C(O)CCCn1cccn1` had a melting point of 74 to 76 °C.

Take `CC(C)(C)S(=O)Cc1cccc(N)c1` (configuration not stated): the melting point was in the range of 121 to 123 °C.

Molecule `COc1ccccc1NS(=O)(=O)c1ccc(NN)c([N+](=O)[O-])c1` registered a melting point of 181 to 183 °C.

Turning to `Cc1ccc(NC(=O)c2cc(Cl)ccc2Cl)c(C(=O)O)c1`, the melting point fell in the range of 242 to 244 °C.

In turn, `O=[N+]([O-])c1cc(F)c(F)cc1[N+](=O)[O-]` returned a melting point of 80 to 82 °C.

The molecule `Clc1nc(-c2cccnc2)nc2ccccc12` gave a melting point of 180 to 182 °C.

Regarding `CNC(=O)c1ccc(N)cc1`, the melting point is 177 to 179 °C.

On to `NC(=O)c1c(NC(=O)CCl)sc2c1CCCC2`, for which the melting point fell in the range of 236 to 238 °C.

`CCOc1ccc(CC(CN)C(N)=O)cc1` (configuration not stated) showed a melting point of 116 to 118 °C.

`Cc1cnc2c(c1)NCCN2` gave a melting point of 127 to 129 °C.

Molecule `CN(C)C(=O)c1ccc(Cl)c(NC(=O)OCC(F)(F)F)c1` returned a melting point of 96 to 98 °C.

Take `O=C(CN1CCCC(C(=O)O)C1)Nc1ccccc1` (configuration not stated): the melting point was 100 to 102 °C.

`CC1Nc2ncccc2NC1=O` (configuration not stated) returned a melting point of 272 to 274 °C.

As to `C/C(=N/O)c1cnn(C)c1`, the melting point lay in the range of 144 to 146 °C.

For `CNc1cc(-c2ccc(OC)cc2)[nH]n1`, the melting point was 122 to 124 °C.

Take `O=C(c1ccc(Br)cc1)c1cccnc1`: the melting point lay within 124 to 126 °C.

`Nc1cc(-c2ccccc2Cl)no1` registered a melting point of 69 to 71 °C.

`Cc1cc(O)nc(CCl)n1`: the melting point is 147 to 149 °C.

Take `COc1ccccc1-n1cc(S(=O)(=O)Cl)cn1`: the melting point is 68 to 70 °C.

Molecule `O=[N+]([O-])c1cc(Cc2ccccc2)ccc1O` registered a melting point of 70 to 72 °C.

In the case of `O=C(O)CC#Cc1ccccc1`, the melting point is 71 to 73 °C.

Turning to `CC1CN(c2ccc(N)cc2)CC(C)O1` (configuration not stated), the melting point lay within 73 to 75 °C.

Molecule `Cn1cc(CO)nn1` showed a melting point of 29 to 31 °C.

On to `CC1(c2ccc(S(C)(=O)=O)cc2)CO1` (configuration not stated), for which the melting point lay in the range of 96 to 98 °C.

Regarding `Clc1ccc(-c2nnc(Br)s2)cc1`, the melting point fell in the range of 135 to 137 °C.

For `COc1ccsc1C(N)=O`, the melting point is 147 to 149 °C.

With `O=C(O)c1cccc(Oc2cccc(C(F)(F)F)c2)c1`, the melting point fell in the range of 115 to 117 °C.

`Cc1cccc2[nH]cc(CCN)c12` came in with a melting point of 108 to 110 °C.

In turn, `CCOC(=O)/C(C#N)=C\Nc1ccc(Cl)cc1` came in with a melting point of 141 to 143 °C.

In turn, `CC(=O)c1c[nH]cc1-c1ccccc1` had a melting point of 156 to 158 °C.

For `CS(=O)c1c(N)cccc1Cl` (configuration not stated), the melting point was 107 to 109 °C.
